Results reported in ChEMBL document CHEMBL3612057, “Discovery of indolizines containing triazine moiety as new leads for the development of antitumoral agents targeting mitotic events” (2015).
The source made the active and inactive calls. The rule behind the calls is not given here.

How the values were obtained:
OVCAR-8 = experiment: Cytotoxicity against human OVCAR8 cells assessed as growth inhibition at 10 uM after 24 hrs by SRB assay; format: functional
NCI-H460 = experiment: Cytotoxicity against human NCI-H460 cells assessed as growth inhibition at 10 uM after 24 hrs by SRB assay; format: functional
SK-MEL-5 = experiment: Cytotoxicity against human SK-MEL-5 cells assessed as growth inhibition at 10 uM after 24 hrs by SRB assay; format: functional
RPMI-8226 = experiment: Cytotoxicity against human RPMI8226 cells assessed as growth inhibition at 10 uM after 24 hrs by SRB assay; format: functional
CCRF-CEM = experiment: Cytotoxicity against human CCRF-CEM cells assessed as growth inhibition at 10 uM after 24 hrs by SRB assay; format: functional
SR = experiment: Cytotoxicity against human SR cells assessed as growth inhibition at 10 uM after 24 hrs by SRB assay; format: functional; details: for inhibition of growth at 10 µM: read-out: GI
T47D = experiment: Cytotoxicity against human T47D cells assessed as growth inhibition at 10 uM after 24 hrs by SRB assay; format: functional; details: for inhibition of growth at 10 µM: read-out: GI
HOP-62 [1] = experiment: Cytotoxicity against human HOP62 cells assessed as growth inhibition at 10 uM after 24 hrs by SRB assay; format: functional
K562 = experiment: Cytotoxicity against human K562 cells assessed as growth inhibition at 10 uM after 24 hrs by SRB assay; format: functional
Malme-3M = experiment: Cytotoxicity against human MALME-3M cells assessed as growth inhibition at 10 uM after 24 hrs by SRB assay; format: functional; details: for inhibition of growth at 10 µM: read-out: GI
SNB-75 [2] = experiment: Cytotoxicity against human SNB75 cells assessed as growth inhibition at 10 uM after 24 hrs by SRB assay; format: functional; details: for inhibition of growth at 10 µM: SNB-75, 24 h, read-out: GI
OVCAR-3 = experiment: Cytotoxicity against human OVCAR3 cells assessed as growth inhibition at 10 uM after 24 hrs by SRB assay; format: functional
HL-60(TB) = experiment: Cytotoxicity against human HL-60(TB) cells assessed as growth inhibition at 10 uM after 24 hrs by SRB assay; format: functional
HOP-92 [3] = experiment: Cytotoxicity against human HOP92 cells assessed as growth inhibition at 10 uM after 24 hrs by SRB assay; format: functional
MCF7 = experiment: Cytotoxicity against human MCF7 cells assessed as growth inhibition at 10 uM after 24 hrs by SRB assay; format: functional; details: for inhibition of growth at 10 µM: MCF7, 24 h, read-out: GI
PC-3 = experiment: Cytotoxicity against human PC3 cells assessed as growth inhibition at 10 uM after 24 hrs by SRB assay; format: functional; details: for inhibition of growth at 10 µM: PC-3, 24 h, read-out: GI
NCI-H522 = experiment: Cytotoxicity against human NCI-H522 cells assessed as growth inhibition at 10 uM after 24 hrs by SRB assay; format: functional
MDA-MB-231 = experiment: Cytotoxicity against human MDA-MB-231 cells assessed as growth inhibition at 10 uM after 24 hrs by SRB assay; format: functional; details: for inhibition of growth at 10 µM: MDA-MB-231, 24 h, read-out: GI
Ovis aries = species on record: Ovis aries; experiment: Inhibition of sheep tubulin polymerization at 100 uM by fluorescence assay
HCT-116 = experiment: Cytotoxicity against human HCT116 cells assessed as growth inhibition at 10 uM after 24 hrs by SRB assay; format: functional
ACHN = experiment: Cytotoxicity against human ACHN cells assessed as growth inhibition at 10 uM after 24 hrs by SRB assay; format: functional
786-0 [4] = experiment: Cytotoxicity against human 786-0 cells assessed as growth inhibition at 10 uM after 24 hrs by SRB assay; format: functional
RXF 393 [5] = experiment: Cytotoxicity against human RXF393 cells assessed as growth inhibition at 10 uM after 24 hrs by SRB assay; format: functional
NCI/ADR-RES = experiment: Cytotoxicity against human NCI/ADR-RES cells assessed as growth inhibition at 10 uM after 24 hrs by SRB assay; format: functional
SK-MEL-28 = experiment: Cytotoxicity against human SK-MEL-28 cells assessed as growth inhibition at 10 uM after 24 hrs by SRB assay; format: functional
CAKI-1 = experiment: Cytotoxicity against human CAKI-1 cells assessed as growth inhibition at 10 uM after 24 hrs by SRB assay; format: functional; details: for inhibition of growth at 10 µM: CAKI-1, 24 h, read-out: GI
Hs-578T = experiment: (§1) Cytotoxicity against human Hs578T cells assessed as growth inhibition at 10 uM after 24 hrs by SRB assay; format: functional
MDA-MB-435 = experiment: Cytotoxicity against human MDA-MB-435 cells assessed as growth inhibition at 10 uM after 24 hrs by SRB assay; format: functional
SF-539 = experiment: Cytotoxicity against human SF539 cells assessed as growth inhibition at 10 uM after 24 hrs by SRB assay; format: functional
UACC-62 = experiment: Cytotoxicity against human UACC62 cells assessed as growth inhibition at 10 uM after 24 hrs by SRB assay; format: functional
U-251 = experiment: Cytotoxicity against human U251 cells assessed as growth inhibition at 10 uM after 24 hrs by SRB assay; format: functional
OVCAR-4 = experiment: Cytotoxicity against human OVCAR4 cells assessed as growth inhibition at 10 uM after 24 hrs by SRB assay; format: functional
SK-OV-3 = experiment: Cytotoxicity against human SKOV3 cells assessed as growth inhibition at 10 uM after 24 hrs by SRB assay; format: functional
NCI-H226 = experiment: Cytotoxicity against human NCI-H226 cells assessed as growth inhibition at 10 uM after 24 hrs by SRB assay; format: functional
TK-10 = experiment: Cytotoxicity against human TK10 cells assessed as growth inhibition at 10 uM after 24 hrs by SRB assay; format: functional
A549 = experiment: Cytotoxicity against human A549 cells assessed as growth inhibition at 10 uM after 24 hrs by SRB assay; format: functional
SF-295 = experiment: Cytotoxicity against human SF295 cells assessed as growth inhibition at 10 uM after 24 hrs by SRB assay; format: functional
UACC-257 = experiment: Cytotoxicity against human UACC257 cells assessed as growth inhibition at 10 uM after 24 hrs by SRB assay; format: functional
786-0 [6] = experiment: Cytotoxicity against human 786-0 cells after 48 hrs by SRB assay; format: functional; details: 786-0, 48 h
SNB-75 [7] = experiment: Cytotoxicity against human SNB75 cells after 48 hrs by SRB assay; format: functional; details: SNB-75, 48 h
HOP-62 [8] = experiment: Cytotoxicity against human HOP62 cells after 48 hrs by SRB assay; format: functional; details: HOP-62, 48 h
HOP-92 [9] = experiment: Cytotoxicity against human HOP92 cells after 48 hrs by SRB assay; format: functional; details: HOP-92, 48 h
[10] = as §1; format: functional; details: Hs-578T, read-out: GI
RXF 393 [11] = experiment: Cytotoxicity against human RXF393 cells after 48 hrs by SRB assay; format: functional; details: RXF 393, 48 h

## COc1nc(OC)nc(-c2cc(C(=O)c3ccc(C)cc3)n3ccccc23)n1
OVCAR-8
  growth inhibition (GI): inactive
NCI-H460
  growth inhibition (GI): inactive
SK-MEL-5; SK-MEL-5, 24 h, read-out: GI
  inhibition of growth at 10 µM: 19%
RPMI-8226; RPMI-8226, 24 h, read-out: GI
  inhibition of growth at 10 µM: 26%
CCRF-CEM; read-out: GI
  inhibition of growth at 10 µM: 13%
SR
  inhibition of growth at 10 µM: 22%
T47D
  inhibition of growth at 10 µM: 15%
HOP-62 [1]
  growth inhibition (GI): inactive
K562
  growth inhibition (GI): inactive
Malme-3M
  growth inhibition (GI): inactive
SNB-75 [2]
  inhibition of growth at 10 µM: 18%
OVCAR-3
  growth inhibition (GI): inactive
HL-60(TB)
  growth inhibition (GI): inactive
HOP-92 [3]
  growth inhibition (GI): inactive
MCF7
  inhibition of growth at 10 µM: 10%
PC-3
  inhibition of growth at 10 µM: 13%
NCI-H522
  growth inhibition (GI): inactive
MDA-MB-231
  inhibition of growth at 10 µM: 35%
Ovis aries
  inhibition: inactive
HCT-116; HCT-116, 24 h, read-out: GI
  inhibition of growth at 10 µM: 12%
ACHN
  growth inhibition (GI): inactive
786-0 [4]
  growth inhibition (GI): inactive
RXF 393 [5]
  growth inhibition (GI): inactive
NCI/ADR-RES
  growth inhibition (GI): inactive
SK-MEL-28
  growth inhibition (GI): inactive
CAKI-1
  inhibition of growth at 10 µM: 43%
Hs-578T
  growth inhibition (GI): inactive
MDA-MB-435
  growth inhibition (GI): inactive
SF-539
  growth inhibition (GI): inactive
UACC-62
  growth inhibition (GI): inactive
U-251
  growth inhibition (GI): inactive
OVCAR-4
  growth inhibition (GI): inactive
SK-OV-3
  growth inhibition (GI): inactive
NCI-H226
  growth inhibition (GI): inactive
TK-10
  growth inhibition (GI): inactive
A549
  growth inhibition (GI): inactive
SF-295
  growth inhibition (GI): inactive
UACC-257
  growth inhibition (GI): inactive

## COc1nc(OC)nc(-c2cc(C(=O)c3ccc(Br)cc3)n3ccc4ccccc4c23)n1
OVCAR-8; OVCAR-8, 24 h, read-out: GI
  inhibition of growth at 10 µM: 50%
NCI-H460; NCI-H460, 24 h, read-out: GI
  inhibition of growth at 10 µM: 71%
SK-MEL-5
  growth inhibition (GI): inactive
RPMI-8226
  growth inhibition (GI): inactive
786-0 [6]
  GI50: 4.06 µM
CCRF-CEM
  growth inhibition (GI): inactive
SNB-75 [7]
  GI50: 2.58 µM
SR
  growth inhibition (GI): inactive
T47D
  inhibition of growth at 10 µM: 38%
HOP-62 [1]
  growth inhibition (GI): inactive
K562
  growth inhibition (GI): inactive
Malme-3M
  inhibition of growth at 10 µM: 67%
SNB-75 [2]
  inhibition of growth at 10 µM: 75%
OVCAR-3; OVCAR-3, 24 h, read-out: GI
  inhibition of growth at 10 µM: 51%
HL-60(TB)
  growth inhibition (GI): inactive
HOP-62 [8]
  GI50: 22.8 µM
HOP-92 [3]
  growth inhibition (GI): inactive
MCF7
  inhibition of growth at 10 µM: 60%
HOP-92 [9]
  GI50: 13.2 µM
PC-3
  inhibition of growth at 10 µM: 58%
NCI-H522
  growth inhibition (GI): inactive
MDA-MB-231
  inhibition of growth at 10 µM: 96%
Ovis aries
  inhibition: inactive
HCT-116
  growth inhibition (GI): inactive
ACHN; read-out: GI
  inhibition of growth at 10 µM: 29%
786-0 [4]; 786-0, 24 h, read-out: GI
  inhibition of growth at 10 µM: 81%
RXF 393 [5]; RXF 393, 24 h, read-out: GI
  inhibition of growth at 10 µM: 81%
NCI/ADR-RES; read-out: GI
  inhibition of growth at 10 µM: 46%
SK-MEL-28; SK-MEL-28, 24 h, read-out: GI
  inhibition of growth at 10 µM: 52%
CAKI-1
  inhibition of growth at 10 µM: 44%
[10]
  inhibition of growth at 10 µM: 65%
MDA-MB-435
  growth inhibition (GI): inactive
SF-539
  growth inhibition (GI): inactive
UACC-62
  growth inhibition (GI): inactive
U-251
  growth inhibition (GI): inactive
OVCAR-4; OVCAR-4, 24 h, read-out: GI
  inhibition of growth at 10 µM: 33%
SK-OV-3
  growth inhibition (GI): inactive
NCI-H226; NCI-H226, 24 h, read-out: GI
  inhibition of growth at 10 µM: 28%
TK-10
  growth inhibition (GI): inactive
A549; A549, 24 h, read-out: GI
  inhibition of growth at 10 µM: 55%
SF-295; SF-295, 24 h, read-out: GI
  inhibition of growth at 10 µM: 76%
RXF 393 [11]
  GI50: 3.57 µM
UACC-257; UACC-257, 24 h, read-out: GI
  inhibition of growth at 10 µM: 32%

## COc1nc(OC)nc(-c2cc(C(=O)c3cc(OC)c(OC)c(OC)c3)n3ccccc23)n1
OVCAR-8
  growth inhibition (GI): inactive
NCI-H460
  growth inhibition (GI): inactive
SK-MEL-5
  growth inhibition (GI): inactive
RPMI-8226
  growth inhibition (GI): inactive
CCRF-CEM
  growth inhibition (GI): inactive
SR
  inhibition of growth at 10 µM: 20%
T47D
  growth inhibition (GI): inactive
HOP-62 [1]
  growth inhibition (GI): inactive
K562; K562, 24 h, read-out: GI
  inhibition of growth at 10 µM: 10%
Malme-3M
  inhibition of growth at 10 µM: 11%
SNB-75 [2]
  growth inhibition (GI): inactive
OVCAR-3
  growth inhibition (GI): inactive
HL-60(TB)
  growth inhibition (GI): inactive
HOP-92 [3]
  growth inhibition (GI): inactive
MCF7
  growth inhibition (GI): inactive
PC-3
  growth inhibition (GI): inactive
NCI-H522
  growth inhibition (GI): inactive
MDA-MB-231
  growth inhibition (GI): inactive
Ovis aries
  inhibition: inactive
HCT-116
  growth inhibition (GI): inactive
ACHN
  growth inhibition (GI): inactive
786-0 [4]
  growth inhibition (GI): inactive
RXF 393 [5]
  growth inhibition (GI): inactive
NCI/ADR-RES
  growth inhibition (GI): inactive
SK-MEL-28
  growth inhibition (GI): inactive
CAKI-1
  growth inhibition (GI): inactive
Hs-578T
  growth inhibition (GI): inactive
MDA-MB-435; MDA-MB-435, 24 h, read-out: GI
  inhibition of growth at 10 µM: 35%
SF-539
  growth inhibition (GI): inactive
UACC-62
  growth inhibition (GI): inactive
U-251
  growth inhibition (GI): inactive
OVCAR-4
  growth inhibition (GI): inactive
SK-OV-3
  growth inhibition (GI): inactive
NCI-H226
  growth inhibition (GI): inactive
TK-10
  growth inhibition (GI): inactive
A549
  growth inhibition (GI): inactive
SF-295
  growth inhibition (GI): inactive
UACC-257
  growth inhibition (GI): inactive
